# Assays:
# Format in all cases: biochemical
# Tyk2-JH1JH2 = Tyk2-JH1JH2 (Homo sapiens (Human), UniProt P29597, C1142A/C936A); assay: Enzymatic inhibition assay (RapidFire HTMS), Tyk2; details: 50 μM ATP, 200 μM substrate
# From the text: (§1) LC/MS grade Water and Acetonitrile (ACN), were purchased from HoneyWell, Burdick & Jackson (Muskegon, Mich., USA). Dimethylsulfoxide 99.8% (DMSO) and Trifluoroacetic Acid 99.5% (TFA) were purchased from EMD Chemical (Gibbstown, N.J., USA). Adenosine triphosphate (ATP), 4-Morpholinepropanesulfonic acid (MOPS), Magnesium chloride (MgCl2), ethylenediaminetetraacetic acid (EDTA), dithiothreitol (DTT), formic acid >95% (FA) and Tween-20 were purchased from Sigma (St Louis, Mo., USA). 384-well polypropylene plates, Cat #781280 were purchased from Greiner (Monroe, N.C.), RapidFire™ cartridge A C4 Column (Agilent Technologies, Santa Clara, Calif.).
# (§2) The HTMS experiments were performed in positive ionization mode on a RapidFire 300 instrument (Agilent Technologies, Santa Clara, Calif.), coupled with an ABSiex QTrap 4000 system with an Electrospray Ionization source (RF-MS) (Concord, ON, Canada). […] The entire system was operated using the RapidFire software interfaced with Analyst software for the mass spectrometer.
# (§3) 11-point dosing series were made for each compound by serially diluting 1:3 or 1:4 in DMSO, with point 12 being a DMSO control. From the serial dilution plates, sample was transferred to a 384 wells assay plate (#781280, Greiner, Monroe, N.C.) using Labcyte Echo (Sunnyvale, Calif.), or Biosero ATS (San Diego, Calif.). The compounds were tested in duplicate. Column 12 was used for positive controls, and column 24 contained negative controls with no enzyme added. A compound from our internal collection, with inhibitory activity for JAK isoforms, was used as a reference compound. The final concentration of DMSO was ≤0.25% in a 20 μL reaction. […] The Tyk2 enzyme was pre-incubated with 2 mM ATP for 30 min prior to the reaction initiation. Immediately after the addition of the enzyme to the reaction mixture, the plate was centrifuged at 1000 rpm for 1 minute and incubated at 25° C. for 45 minutes for JAK 3 and 90 minutes for JAK1, JAK2 and Tyk2. The reaction was quenched by the addition of 20 μL of 0.5% TFA containing 0.15 μM of internal standard peptide using Multidrop Combi reagent dispenser (Thermo Scientific, Waltham, Mass.). […] After the quench, the assay plate was centrifuged at 3000 rpm for 3 minutes and sealed with pierceable aluminum foil (Cat #06644-001, Agilent) using a PlateLoc (Agilent Technologies, Santa Clara, Calif.). The plates then were transferred on to the RapidFire for the MS analysis. Compound inhibition was assessed by a decrease of the phosphorylated product levels in sample wells compared to the non-inhibited enzyme reaction.
# (§4) The sample analysis on the RapidFire was performed using a mobile phase A consisting of Water/TFA/FA (100:0.01:0.1, v/v/v), a mobile phase B consisting of ACN/Water/TFA/FA (80:20:0.01:0.1, v/v/v). […] The samples were aspirated directly from the 384 assay plate and delivered onto RF-MS microscale solid-phase C4 extraction cartridge (Type A). The undesired component such as salt, cofactor, detergent and large protein were washed out and the retained analytes (substrate, product and IS) were coeluted directly onto the ABSiex Qtrap 4000 system.
# JAK3-JH1JH2 = JAK3-JH1JH2 (Homo sapiens (Human), UniProt P52333); assay: Enzymatic inhibition assay (RapidFire HTMS), JAK3; details: 150 μM ATP, 40 μM substrate
# Sequence of JAK3-JH1JH2 (P52333 512-1124): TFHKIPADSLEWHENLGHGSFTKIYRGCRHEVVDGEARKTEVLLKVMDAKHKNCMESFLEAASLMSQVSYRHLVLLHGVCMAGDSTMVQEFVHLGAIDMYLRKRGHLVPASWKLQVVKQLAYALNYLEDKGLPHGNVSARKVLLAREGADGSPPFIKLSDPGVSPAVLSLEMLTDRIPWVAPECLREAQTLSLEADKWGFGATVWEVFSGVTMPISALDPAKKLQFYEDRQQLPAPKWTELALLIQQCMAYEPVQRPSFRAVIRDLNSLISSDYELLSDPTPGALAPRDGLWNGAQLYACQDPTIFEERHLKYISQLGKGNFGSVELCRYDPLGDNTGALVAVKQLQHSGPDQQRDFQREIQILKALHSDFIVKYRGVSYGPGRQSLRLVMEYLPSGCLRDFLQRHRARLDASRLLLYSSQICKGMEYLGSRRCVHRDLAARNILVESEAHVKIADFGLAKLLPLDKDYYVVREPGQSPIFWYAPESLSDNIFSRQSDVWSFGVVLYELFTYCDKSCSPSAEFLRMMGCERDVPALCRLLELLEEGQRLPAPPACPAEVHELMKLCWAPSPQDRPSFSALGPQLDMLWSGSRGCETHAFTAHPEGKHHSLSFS
# From the text: as §1, §2
# as §3, with “compound.” for “compound. The final concentration of DMSO was ≤0.25% in a 20 μL reaction.”
# as §4
# JAK1-JH1JH2 = JAK1-JH1JH2 (Homo sapiens (Human), UniProt P23458); assay: Enzymatic inhibition assay (RapidFire HTMS), JAK1; details: 12.5 μM ATP, 200 μM substrate; read-out: JAK1-JH2JH1 IC50
# Sequence of JAK1-JH1JH2 (P23458 574-1154): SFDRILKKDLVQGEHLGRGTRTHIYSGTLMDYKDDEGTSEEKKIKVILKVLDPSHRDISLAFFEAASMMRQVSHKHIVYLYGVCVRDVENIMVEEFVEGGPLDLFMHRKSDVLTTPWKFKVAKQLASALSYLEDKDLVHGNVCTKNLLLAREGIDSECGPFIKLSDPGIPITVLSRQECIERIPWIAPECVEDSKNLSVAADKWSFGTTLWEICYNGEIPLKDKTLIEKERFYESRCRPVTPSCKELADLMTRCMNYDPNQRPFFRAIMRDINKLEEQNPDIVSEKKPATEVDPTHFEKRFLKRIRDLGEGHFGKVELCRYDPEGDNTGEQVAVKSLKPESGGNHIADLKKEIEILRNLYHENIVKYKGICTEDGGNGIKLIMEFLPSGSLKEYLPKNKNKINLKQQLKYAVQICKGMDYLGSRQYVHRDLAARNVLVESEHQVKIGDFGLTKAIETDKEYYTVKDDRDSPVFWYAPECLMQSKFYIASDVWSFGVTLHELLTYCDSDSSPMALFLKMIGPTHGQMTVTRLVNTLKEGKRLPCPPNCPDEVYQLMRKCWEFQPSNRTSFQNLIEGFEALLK
# From the text: as §1, §2, §3, §4
# Sequence of Tyk2-JH1JH2 (P29597 580-1182 C936A/C1142A): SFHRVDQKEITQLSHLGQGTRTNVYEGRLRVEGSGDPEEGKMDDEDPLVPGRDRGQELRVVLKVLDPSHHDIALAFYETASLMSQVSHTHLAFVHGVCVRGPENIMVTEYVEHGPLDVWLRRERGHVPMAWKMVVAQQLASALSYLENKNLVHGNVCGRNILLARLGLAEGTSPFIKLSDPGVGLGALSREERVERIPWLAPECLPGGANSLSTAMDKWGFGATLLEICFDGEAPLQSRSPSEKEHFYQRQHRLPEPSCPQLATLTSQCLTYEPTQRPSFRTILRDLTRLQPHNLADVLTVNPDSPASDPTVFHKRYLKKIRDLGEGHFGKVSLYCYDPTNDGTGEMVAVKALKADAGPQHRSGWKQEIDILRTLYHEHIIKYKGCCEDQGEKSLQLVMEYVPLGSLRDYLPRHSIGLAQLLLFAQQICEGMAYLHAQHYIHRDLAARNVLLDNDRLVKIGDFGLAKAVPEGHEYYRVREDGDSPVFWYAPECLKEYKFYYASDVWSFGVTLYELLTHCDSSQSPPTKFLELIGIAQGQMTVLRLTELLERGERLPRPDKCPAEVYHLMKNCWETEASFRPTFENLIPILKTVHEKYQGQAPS
Compound,IC50 (Tyk2-JH1JH2),IC50 (JAK3-JH1JH2),IC50 (JAK1-JH1JH2)
"N#CC[C@H]1CC[C@H](n2c(CC(=O)N3CCC(C(F)(F)F)CC3)nc3cnc4[nH]ccc4c32)CC1 [Ex. 6, 2-((1r,4r)-4-(2-(2-Oxo-2-(4-(trifluoromethyl)piperidin-1-yl)ethyl)imidazo[4,5-d]pyrrolo[2,3-b]pyridin-1(6H)-yl)cyclohexyl)acetonitrile]",0.0004 µM,0.0494 µM,–
"N#CC[C@H]1CC[C@H](n2c(-c3cocn3)nc3cnc4[nH]ccc4c32)CC1 [Ex. 11, 2-((1r,4r)-4-(2-(Oxazol-4-yl)imidazo[4,5-d]pyrrolo[2,3-b]pyridin-1(6H)-yl)cyclohexyl)acetonitrile]",0.0012 µM,0.0335 µM,0.0001 µM
"CC(C)(CO)CNC(=O)Cc1nc2cnc3[nH]ccc3c2n1[C@H]1CC[C@H](CC#N)CC1 [Ex. 15, 2-(1-((1r,4r)-4-(Cyanomethyl)cyclohexyl)-1,6-dihydroimidazo[4,5-d]pyrrolo[2,3-b]pyridin-2-yl)-N-(3-hydroxy-2,2-dimethylpropyl)acetamide]",–,0.0545 µM,0.0001 µM
"N#CC[C@H]1CC[C@H](n2c(-c3cn[nH]n3)nc3cnc4[nH]ccc4c32)CC1 [Ex. 16, 2-((1r,4r)-4-(2-(2H-1,2,3-Triazol-4-yl)imidazo[4,5-d]pyrrolo[2,3-b]pyridin-1(6H)-yl)cyclohexyl)acetonitrile]",0.0037 µM,0.0377 µM,0.0001 µM
"N#CC[C@H]1CC[C@H](n2c(CC(=O)NCC34CC5CC(CC(O)(C5)C3)C4)nc3cnc4[nH]ccc4c32)CC1 [Ex. 21, 2-(1-((1r,4r)-4-(Cyanomethyl)cyclohexyl)-1,6-dihydroimidazo[4,5-d]pyrrolo[2,3-b]pyridin-2-yl)-N-(((1S,3R,5R,7S)-3-hydroxyadamantan-1-yl)methyl)acetamide]",0.0035 µM,0.0551 µM,0.0001 µM
"N#CC[C@H]1CC[C@H](n2c(Cc3ccn[nH]3)nc3cnc4[nH]ccc4c32)CC1 [Ex. 25, 2-((1r,4r)-4-(2-((1H-Pyrazol-5-yl)methyl)imidazo[4,5-d]pyrrolo[2,3-b]pyridin-1(6H)-yl)cyclohexyl)acetonitrile]",0.0053 µM,0.0779 µM,0.0001 µM
"N#CC[C@H]1CC[C@H](n2c(CC(=O)NCc3ccccc3)nc3cnc4[nH]ccc4c32)CC1 [Ex. 48, N-Benzyl-2-(1-((1r,4r)-4-(cyanomethyl)cyclohexyl)-1,6-dihydroimidazo[4,5-d]pyrrolo[2,3-b]pyridin-2-yl)acetamide]",0.0112 µM,0.193 µM,0.0002 µM
"N#CC[C@H]1CC[C@H](n2c(CC(=O)NC34CC5CC(CC(O)(C5)C3)C4)nc3cnc4[nH]ccc4c32)CC1 [Ex. 52, 2-(1-((1r,4r)-4-(Cyanomethyl)cyclohexyl)-1,6-dihydroimidazo[4,5-d]pyrrolo[2,3-b]pyridin-2-yl)-N-((1s,3r,5R,7S)-3-hydroxyadamantan-1-yl)acetamide]",0.0044 µM,0.0575 µM,0.0002 µM
"N#CC[C@H]1CC[C@H](n2c(CC(=O)NCC3CCCCC3)nc3cnc4[nH]ccc4c32)CC1 [Ex. 69, 2-(1-((1r,4r)-4-(Cyanomethyl)cyclohexyl)-1,6-dihydroimidazo[4,5-d]pyrrolo[2,3-b]pyridin-2-yl)-N-(cyclohexylmethyl)acetamide]",0.0156 µM,0.111 µM,0.0003 µM
"N#CC[C@H]1CC[C@H](n2c(CNC(=O)Nc3ccccc3)nc3cnc4[nH]ccc4c32)CC1 [Ex. 70, 1-((1-((1r,4r)-4-(Cyanomethyl)cyclohexyl)-1,6-dihydroimidazo[4,5-d]pyrrolo[2,3-b]pyridin-2-yl)methyl)-3-phenylurea]",0.0094 µM,0.108 µM,0.0004 µM
"C[Si](C)(C)C1CCC(c2nc3cnc4[nH]ccc4c3n2[C@H]2CC[C@H](CC#N)CC2)CC1 (stereo partly drawn) [Ex. 100, 2-((1r,4r)-4-(2-(4-(Trimethylsilyl)cyclohexyl)imidazo[4,5-d]pyrrolo[2,3-b]pyridin-1(6H)-yl)cyclohexyl)acetonitrile]",2.28 µM,> 6.25 µM,0.072 µM
"N#CC[C@H]1CC[C@H](n2c(CN/C(Cc3ccccc3)=N\O)nc3cnc4[nH]ccc4c32)CC1 [Ex. 103, (EZ)—N-((1-((1r,4r)-4-(Cyanomethyl)cyclohexyl)-1,6-dihydroimidazo[4,5-d]pyrrolo[2,3-b]pyridin-2-yl)methyl)-N-hydroxy-2-phenylacetimidamide]",0.0113 µM,0.459 µM,0.0005 µM
"N#CC[C@H]1CC[C@H](n2c(CC(=O)Nc3ccc(C(O)(C(F)(F)F)C(F)(F)F)cc3)nc3cnc4[nH]ccc4c32)CC1 [Ex. 104, 2-(1-((1r,4r)-4-(Cyanomethyl)cyclohexyl)-1,6-dihydroimidazo[4,5-d]pyrrolo[2,3-b]pyridin-2-yl)-N-(4-(1,1,1,3,3,3-hexafluoro-2-hydroxypropan-2-yl)phenyl)acetamide]",0.0126 µM,0.298 µM,0.0005 µM
"CC(C)(O)CNC(=O)c1nc2cnc3[nH]ccc3c2n1[C@H]1CC[C@H](CC#N)CC1 [Ex. 117, 1-((1r,4r)-4-(Cyanomethyl)cyclohexyl)-N-(2-hydroxy-2-methylpropyl)-1,6-dihydroimidazo[4,5-d]pyrrolo[2,3-b]pyridine-2-carboxamide]",0.0173 µM,0.273 µM,0.0006 µM
"N#CC[C@H]1CC[C@H](n2c(-c3cn[nH]c3)nc3cnc4[nH]ccc4c32)CC1 [Ex. 123, 2-((1r,4r)-4-(2-(1H-pyrazol-4-yl)imidazo[4,5-d]pyrrolo[2,3-b]pyridin-1(6H)-yl)cyclohexyl)acetonitrile]",0.0116 µM,0.146 µM,0.0007 µM
"N#CC[C@H]1CC[C@H](n2c(C(=O)NCC3(O)CCCCCC3)nc3cnc4[nH]ccc4c32)CC1 [Ex. 136, 1-((1r,4r)-4-(Cyanomethyl)cyclohexyl)-N-((1-hydroxycycloheptyl)methyl)-1,6-dihydroimidazo[4,5-d]pyrrolo[2,3-b]pyridine-2-carboxamide]",0.0191 µM,0.0659 µM,0.0009 µM
"COCCNC(=O)c1nc2cnc3[nH]ccc3c2n1[C@H]1CC[C@H](CC#N)CC1 [Ex. 145, 1-((1r,4r)-4-(Cyanomethyl)cyclohexyl)-N-(2-methoxyethyl)-1,6-dihydroimidazo[4,5-d]pyrrolo[2,3-b]pyridine-2-carboxamide]",0.0194 µM,0.175 µM,0.0011 µM
"N#CC[C@H]1CC[C@H](n2c(CO/N=C(\N)CN3CCCCC3)nc3cnc4[nH]ccc4c32)CC1 [Ex. 153, (Z*)—N′-((1-((1r,4r)-4-(Cyanomethyl)cyclohexyl)-1,6-dihydroimidazo[4,5-d]pyrrolo[2,3-b]pyridin-2-yl)methoxy)-2-(piperidin-1-yl)acetimidamide]",–,0.512 µM,0.0037 µM

# From patent US10981911B2, “Imidazopyrrolopyridine as inhibitors of the JAK family of kinases” (Janssen Pharmaceutica NV, priority 2016, dated 2021)
